US20220031871A1, “ANTIBODIES FOR CHELATED RADIONUCLIDES AND CLEARING AGENTS” (Hoffmann-La Roche Inc., priority 2018, published 2022)

Test system: s.c. BxPC3 tumors
Assay: Protocol 103: efficacy, biodistribution, tolerability of CEA-PRIT
Format: in vivo, SCID mice
Experimental: Step 1: Administration of a BsAb (i.v. or i.p.): The BsAb used in the studies binds Pb-DOTAM with high affinity and targets the tumor e.g. via CEA.
Step 2: Administration of CA (i.v. or i.p.): To allow efficient tumor accumulation of ^212Pb-DOTAM, circulating BsAb needs to be neutralized in the blood using a CA that blocks ^212Pb-DOTAM binding to unbound BsAb, without penetrating into the tumor and consequently blocking the pretargeted sites. The CA is administered once the BsAb has accumulated to a sufficient degree in the tumor, generally after 4-10 days. […]
The body weight (BW) of the study animals was measured at least 3 times per week, with additional measurements as needed depending on the health status. […]
Blood was collected at termination from the venous sinus using retro-orbital bleeding, followed by additional tissue harvest for radioactive measurements and/or histological analysis, as mandated by the protocols. […] Organs and tissues collected for biodistribution purposes were weighed and measured for radioactivity using a 2470 WIZARD^2 automatic gamma counter (PerkinElmer), and the percent injected dose per gram of tissue (% ID/g) subsequently calculated, including corrections for decay and background. […]
where d indicates treatment day and 0 the baseline value. […] Tumor regression (TR) was calculated according to: […]

Which BW loss (10 μCi, even at multiple injections) does the source give for NC(=O)CN1CCN(CC(N)=O)CCN(CC(N)=O)CCN(CC(N)=O)CC1.[212Pb+2] [^212Pb-DOTAM] here?
Its BW loss is “mild”.

And the radioactivity level tolerability (30 μCi under the applied conditions)?
Its radioactivity level tolerability is “approaching the maximum tolerated activity”.
